Numbers after ± are expanded uncertainties.
Assays:
[1] = 101.3 kPa, Liquid; for viscosity: Concentric cylinders viscometry; for mass density: Vibrating tube method
[2] = refractive index (Na D-line) (dimensionless); conditions: 101.33 kPa, Liquid, Standard Abbe refractometry
[3] = refractive index (Na D-line) (dimensionless); xn = mol fraction of the nth substance listed; conditions: 101.3 kPa, Liquid, Standard Abbe refractometry, x1 = 1
[4] = xn = mol fraction of the nth substance listed; conditions: 101.3 kPa, Liquid, x1 = 1; for viscosity: Concentric cylinders viscometry; for mass density: Vibrating tube method

COCCOCCOCCOCCOC [2,5,8,11,14-pentaoxapentadecane]
Conditions	mass density, [1] [kg/m3]	refractive index, [2]	viscosity, [1] [mPa·s]
288.15 K	1015.63 ± 0.24	1.4345 ± 0.00037	4.341 ± 0.051
293.15 K	1011 ± 0.24	1.43238 ± 0.00037	3.834 ± 0.045
298.15 K	1006.36 ± 0.23	1.43027 ± 0.00037	3.38 ± 0.04
303.15 K	1001.73 ± 0.23	1.42815 ± 0.00037	3.004 ± 0.036
308.15 K	997.104 ± 0.23	1.42603 ± 0.00037	2.691 ± 0.032
313.15 K	992.481 ± 0.23	1.42394 ± 0.00037	2.426 ± 0.029
318.15 K	987.859 ± 0.23	1.42183 ± 0.00037	2.199 ± 0.026
323.15 K	983.234 ± 0.23	1.41973 ± 0.00037	2.006 ± 0.024

CN1CCCC1=O [N-methylpyrrolidone]
Conditions	mass density, [1] [kg/m3]	refractive index, [2]	viscosity, [1] [mPa·s]
288.15 K	1037.3 ± 0.26	1.47166 ± 0.00037	1.99 ± 0.023
293.15 K	1032.84 ± 0.26	1.46952 ± 0.00037	1.823 ± 0.021
298.15 K	1028.38 ± 0.25	1.46736 ± 0.00037	1.679 ± 0.019
303.15 K	1023.92 ± 0.25	1.4652 ± 0.00037	1.555 ± 0.018
308.15 K	1019.46 ± 0.24	1.46306 ± 0.00037	1.444 ± 0.017
313.15 K	1015 ± 0.24	1.46095 ± 0.00037	1.346 ± 0.016
318.15 K	1010.53 ± 0.24	1.45891 ± 0.00037	1.259 ± 0.015
323.15 K	1006.06 ± 0.23	1.4568 ± 0.00037	1.182 ± 0.014

CCC(C)O (stereo not given) [butan-2-ol] + COCCOCCOCCOCCOC
Conditions	mass density, [4] [kg/m3]	refractive index, [3]	viscosity, [4] [mPa·s]
288.15 K	810.654 ± 0.14	1.39959 ± 0.00033	4.29 ± 0.047
293.15 K	806.62 ± 0.14	1.39748 ± 0.00033	3.576 ± 0.039
298.15 K	802.502 ± 0.14	1.39534 ± 0.00033	2.954 ± 0.033
303.15 K	798.302 ± 0.14	1.39314 ± 0.00033	2.469 ± 0.028
308.15 K	794.003 ± 0.14	1.39086 ± 0.00033	2.08 ± 0.024
313.15 K	789.609 ± 0.14	1.38851 ± 0.00033	1.766 ± 0.02
318.15 K	785.109 ± 0.15	1.38617 ± 0.00033	1.512 ± 0.017
323.15 K	780.499 ± 0.15	1.38372 ± 0.00033	1.303 ± 0.015

CCC(C)O (stereo not given) [butan-2-ol] + CN1CCCC1=O
Conditions	mass density, [4] [kg/m3]	refractive index, [3]	viscosity, [4] [mPa·s]
288.15 K	810.654 ± 0.14	1.39959 ± 0.00033	4.29 ± 0.051
293.15 K	806.62 ± 0.14	1.39748 ± 0.00033	3.576 ± 0.042
298.15 K	802.502 ± 0.14	1.39534 ± 0.00033	2.954 ± 0.035
303.15 K	798.302 ± 0.14	1.39314 ± 0.00033	2.469 ± 0.03
308.15 K	794.003 ± 0.14	1.39086 ± 0.00033	2.08 ± 0.025
313.15 K	789.609 ± 0.14	1.38851 ± 0.00033	1.766 ± 0.022
318.15 K	785.109 ± 0.15	1.38617 ± 0.00033	1.512 ± 0.019
323.15 K	780.499 ± 0.15	1.38372 ± 0.00033	1.303 ± 0.016

CCC(C)O (stereo not given) [butan-2-ol]
Conditions	mass density, [1] [kg/m3]	refractive index, [2]	viscosity, [1] [mPa·s]
288.15 K	810.654 ± 0.14	1.39959 ± 0.00033	4.29 ± 0.047
293.15 K	806.62 ± 0.14	1.39748 ± 0.00033	3.576 ± 0.039
298.15 K	802.502 ± 0.14	1.39534 ± 0.00033	2.954 ± 0.033
303.15 K	798.302 ± 0.14	1.39314 ± 0.00033	2.469 ± 0.028
308.15 K	794.003 ± 0.14	1.39086 ± 0.00033	2.08 ± 0.024
313.15 K	789.609 ± 0.14	1.38851 ± 0.00033	1.766 ± 0.02
318.15 K	785.109 ± 0.15	1.38617 ± 0.00033	1.512 ± 0.017
323.15 K	780.499 ± 0.15	1.38372 ± 0.00033	1.303 ± 0.015

Reference: the NIST ThermoML archive (doi:10.1021/je400486p)
